Data: patent publication US9265268B2, “Method of handling bananas” (priority 2009, dated 2016)

Legend:
bananas [1] = experiment: Example 1: bananas bagged at harvest, shipped, ethylene-ripened, exposed 12 hr to MCP, stored at approx. 20° C.; sugar spots, color, shelf life; format: in vivo, Musa; design: key to Sugar Spot Ratings: 0 = no spots, 1 = few, 2 = moderate, 3 = severe spots (group average)
Source text: Each cluster of bananas was rated daily for sugar spots. Clusters were rated using the following scale:
0=no spots; 1=few spots; 2=moderate spots; 3=severe spots
Clusters with rating of 0-1 are commercially desirable to consumers. Clusters with ratings of 2-3 are unacceptable to consumers. In the results below, the average rating for all the clusters in a given treatment group is reported.
The color of banana peels is rated according to a seven stage rating scale: stage 1 (dark green); stage 2 (all light green); stage 3 (half green and half yellow); stage 4 (more yellow than green); stage 5 (green tips and necks); stage 6 (all yellow; maybe light green necks, no green tips); stage 7 (yellow flecked with brown). Consumers generally prefer to eat bananas in stage 5 or stage 6.
Bananas were harvested in Columbia and placed in bags. Three types of bags were used: • (1) non-MAP polymeric film bag, sized to hold 18 kg of bananas (“poly liner”). Each bag has two or more holes, each with diameter of approximately 20 mm or larger. • (2) non-MAP polymeric film bag with 44 large holes (hole diameter 10 mm), sized to hold 1.4 kg of bananas (“T-bag”); and • (3) MAP bag (as described above), sized to hold about 1.4 kg of bananas.
The appropriate weight of bananas was placed in each type of bag after harvest and prior to shipment. Bags were placed in standard cardboard carrying devices. Bananas then were shipped to Philadelphia, Pa., where they were exposed to ethylene using a standard 4 day ripening schedule. Standard commercial methods of shipment and exposure to ethylene were used.
The Test Protocol that was used was as follows. 312 MAP bags were packed. Each bag held approximately 1.4 kg (3 lb) of bananas. Thirteen such bags were packed in each box. Total weight of bananas in MAP bags was approximately 432 kg. Approximately 216 kg of bananas were placed into poly liners, which were placed into boxes identical to those used for the MAP bags. Approximately 216 kg of bananas were placed into T bags, which were placed into boxes identical to those used for the MAP bags. The gross fruit weight of the each box was approximately 19.5 kg (43 lb).
Banana heads (industry nomenclature is rasimo) were harvested at 14 weeks of age (typical for US markets). Heads were cut into large, medium and small hands. The hands were washed in chlorinated water tanks. The washed hands were further broken into clusters. Clusters were packed into bags that each held approximately 1.4 kg (3 lb) or bags that each held approximately 18 kg (40 lb). Bags were placed into standard cardboard boxes, and each box held approximately 18-20 kg. Each box had 8 round holes of diameter 40 mm, plus two larger oval holes that also served as hand-holds for carrying.
The MAP-packaged bananas were packaged as follows: Clusters of approximately 1.4 kg were carefully placed into microperforated bags, and the bags were sealed by twisting the open side of the bag, folding down the twisted end, and placing a rubber band around the twisted and folded end of the bag.
All bananas were quickly cooled to 13.3° C. and held at that temperature for shipping. During shipping, air ventilation was approximately 15%.
Bags were not opened during shipping or ripening. Temperature was monitored in some of the bags by placing a temperature probe in one banana in that bag prior to sealing.
Bananas were ripened in forced-air ripening rooms as follows. On day 1, bananas were kept at 18° C. (64° F.) and exposed to exogenous ethylene (150 ppm for 24 hours). No further exogenous ethylene was used. After day 1, bananas were kept at 18° C. for two days and then at 10° C. for one day. The temperatures given are pulp temperatures and not room temperatures. Humidity was 85% to 95%.
Bananas were then shipped to Spring House, Pa. Bananas arrived at color stage 2.5-3. The bananas were randomly divided into treatment sets as follows: […]

bananas [2] = experiment: Example US-7c: various number of bananas per bag (day on which sugar spots developed); format: in vivo, Musa; settings: for SS day (day during holding at 17.8° C. on which sugar spots developed): MAP/MCP: MAP type M, 1,000 ppb 1-MCP
Description: Bananas were handled and tested as in Example US-1, except that the number of bananas (“# of B”) per bag was varied. Results for MAP bags type M were compared at 0 1-MCP (“MAP only”) and at 1,000 ppb of 1-MCP (“MAP/MCP”). MAP only samples are comparative; MAP/MCP samples exemplify the present invention.
Also, the sugar spots were assessed. In this experiment, the number of the day during the holding at 17.8° C. on which sugar spots developed is noted (“SS day”). Bananas in T-bags (with either 0 or 1,000 ppb of 1-MCP) developed sugar spots on day 3.

CC1=CC1 [1-MCP, 1-methylcyclopropene]
additional shelf life (bananas [1]; 1-MCP alone (no MAP)): 1 to 2 days | Sugar Spot Ratings (bananas [1]; MAP, 300 ppb MCP, Day 0): 0 | Sugar Spot Ratings (bananas [1]; MAP, 300 ppb MCP, Day 1): 0 | Sugar Spot Ratings (bananas [1]; MAP, 300 ppb MCP, Day 2): 0.00 | Sugar Spot Ratings (bananas [1]; MAP, 300 ppb MCP, Day 3): 0.19 | Sugar Spot Ratings (bananas [1]; MAP, 300 ppb MCP, Day 4): 0.53 | Sugar Spot Ratings (bananas [1]; MAP, 300 ppb MCP, Day 5): 0.92 | Sugar Spot Ratings (bananas [1]; MAP, 300 ppb MCP, Day 6): 1.61 | Sugar Spot Ratings (bananas [1]; MAP, 1000 ppb MCP, Day 0): 0 | Sugar Spot Ratings (bananas [1]; MAP, 1000 ppb MCP, Day 1): 0 | Sugar Spot Ratings (bananas [1]; MAP, 1000 ppb MCP, Day 2): 0.11 | Sugar Spot Ratings (bananas [1]; MAP, 1000 ppb MCP, Day 3): 0.22 | Sugar Spot Ratings (bananas [1]; MAP, 1000 ppb MCP, Day 4): 0.56 | Sugar Spot Ratings (bananas [1]; MAP, 1000 ppb MCP, Day 5): 1.56 | Sugar Spot Ratings (bananas [1]; MAP, 1000 ppb MCP, Day 6): 1.89 | Sugar Spot Ratings (bananas [1]; T bags, 300 ppb MCP, Day 0): 0 | Sugar Spot Ratings (bananas [1]; T bags, 300 ppb MCP, Day 1): 0 | Sugar Spot Ratings (bananas [1]; T bags, 300 ppb MCP, Day 2): 0 | Sugar Spot Ratings (bananas [1]; T bags, 300 ppb MCP, Day 3): 0.94 | Sugar Spot Ratings (bananas [1]; T bags, 300 ppb MCP, Day 4): 2.44 | Sugar Spot Ratings (bananas [1]; T bags, 300 ppb MCP, Day 5): 2.78 | Sugar Spot Ratings (bananas [1]; T bags, 1000 ppb MCP, Day 0): 0 | Sugar Spot Ratings (bananas [1]; T bags, 1000 ppb MCP, Day 1): 0 | Sugar Spot Ratings (bananas [1]; T bags, 1000 ppb MCP, Day 2): 0 | Sugar Spot Ratings (bananas [1]; T bags, 1000 ppb MCP, Day 3): 0.44 | Sugar Spot Ratings (bananas [1]; T bags, 1000 ppb MCP, Day 4): 2.06 | Sugar Spot Ratings (bananas [1]; T bags, 1000 ppb MCP, Day 5): 2.61 | visual quality maintained beyond the standard handling method (bananas [1]; combined treatment 1-MCP and MAP): 10 days | Sugar Spot Ratings (bananas [1]; poly liner, 300 ppb MCP, Day 0): 0 | Sugar Spot Ratings (bananas [1]; poly liner, 300 ppb MCP, Day 1): 0 | Sugar Spot Ratings (bananas [1]; poly liner, 300 ppb MCP, Day 2): 0.06 | Sugar Spot Ratings (bananas [1]; poly liner, 300 ppb MCP, Day 3): 0.33 | Sugar Spot Ratings (bananas [1]; poly liner, 300 ppb MCP, Day 4): 2.17 | Sugar Spot Ratings (bananas [1]; poly liner, 300 ppb MCP, Day 5): 2.89 | Sugar Spot Ratings (bananas [1]; poly liner, 1000 ppb MCP, Day 0): 0 | Sugar Spot Ratings (bananas [1]; poly liner, 1000 ppb MCP, Day 1): 0 | Sugar Spot Ratings (bananas [1]; poly liner, 1000 ppb MCP, Day 2): 0.00 | Sugar Spot Ratings (bananas [1]; poly liner, 1000 ppb MCP, Day 3): 0.33 | Sugar Spot Ratings (bananas [1]; poly liner, 1000 ppb MCP, Day 4): 2.67 | Sugar Spot Ratings (bananas [1]; poly liner, 1000 ppb MCP, Day 5): 2.89 | SS day (day during holding at 17.8° C. on which sugar spots developed) (bananas [2]; # of B 1): 4 | SS day (day during holding at 17.8° C. on which sugar spots developed) (bananas [2]; # of B 3): 5 | SS day (day during holding at 17.8° C. on which sugar spots developed) (bananas [2]; # of B 5): 6 | SS day (day during holding at 17.8° C. on which sugar spots developed) (bananas [2]; # of B 7): 8 | SS day (day during holding at 17.8° C. on which sugar spots developed) (bananas [2]; # of B 9): 8 | SS day (day during holding at 17.8° C. on which sugar spots developed) (bananas [2]; # of B 12): 8 | day on which sugar spots developed (bananas [2]; T-bags, 1,000 ppb of 1-MCP): 3
